Experimental data from patent US20180064780A1, “SHEAR CONTROLLED RELEASE FOR STENOTIC LESIONS AND THROMBOLYTIC THERAPIES” (PRESIDENT AND FELLOWS OF HARVARD COLLEGE, priority 2010, published 2018).

Legend:
[1] = target: T1, fibrin clots (Homo sapiens, UniProt P02671+P02675+P02679); assay: Microfluidic model of vascular embolism (fibrin clot lysis); type: biochemical; conditions: t-PA 50 ng/ml; within 1 hour; 10 dyne/cm^2 in unobstructed channel
T1 construct: purchased Enzyme Research Laboratories, IN (fibrinogen, alpha-thrombin); Cell Sciences, MA (plasminogen)
T1 sequence (P02671 36-629 limits assumed): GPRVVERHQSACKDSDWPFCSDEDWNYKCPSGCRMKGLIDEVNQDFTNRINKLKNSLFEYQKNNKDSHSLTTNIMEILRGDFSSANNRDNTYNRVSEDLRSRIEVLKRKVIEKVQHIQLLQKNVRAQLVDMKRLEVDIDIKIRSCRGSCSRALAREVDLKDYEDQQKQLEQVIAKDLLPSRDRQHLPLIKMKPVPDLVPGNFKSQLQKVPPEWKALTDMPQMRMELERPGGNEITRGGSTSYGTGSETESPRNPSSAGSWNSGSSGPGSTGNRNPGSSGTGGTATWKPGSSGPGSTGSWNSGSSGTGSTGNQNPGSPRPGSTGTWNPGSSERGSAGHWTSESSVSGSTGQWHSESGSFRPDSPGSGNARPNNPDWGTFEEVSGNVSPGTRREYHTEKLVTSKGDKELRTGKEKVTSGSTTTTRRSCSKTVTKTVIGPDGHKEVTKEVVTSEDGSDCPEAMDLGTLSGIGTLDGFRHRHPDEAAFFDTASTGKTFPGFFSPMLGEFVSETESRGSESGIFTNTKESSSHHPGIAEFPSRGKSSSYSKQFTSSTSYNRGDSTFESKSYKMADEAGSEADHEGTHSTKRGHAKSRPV
T1 sequence (P02675 45-491 limits assumed): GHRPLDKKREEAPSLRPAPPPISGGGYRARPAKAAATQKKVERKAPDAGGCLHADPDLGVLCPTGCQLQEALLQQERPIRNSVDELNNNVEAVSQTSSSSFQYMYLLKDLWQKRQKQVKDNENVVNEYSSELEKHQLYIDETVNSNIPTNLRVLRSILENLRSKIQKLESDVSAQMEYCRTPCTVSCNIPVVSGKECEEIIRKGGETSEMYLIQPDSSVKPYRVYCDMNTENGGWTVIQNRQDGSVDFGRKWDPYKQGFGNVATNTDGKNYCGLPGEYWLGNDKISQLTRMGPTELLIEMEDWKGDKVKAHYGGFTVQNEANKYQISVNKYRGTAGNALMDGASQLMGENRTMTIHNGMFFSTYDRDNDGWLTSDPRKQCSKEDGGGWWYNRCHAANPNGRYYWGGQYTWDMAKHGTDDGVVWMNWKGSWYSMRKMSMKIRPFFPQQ
T1 sequence (P02679 27-437 isoform P02679-2 limits assumed): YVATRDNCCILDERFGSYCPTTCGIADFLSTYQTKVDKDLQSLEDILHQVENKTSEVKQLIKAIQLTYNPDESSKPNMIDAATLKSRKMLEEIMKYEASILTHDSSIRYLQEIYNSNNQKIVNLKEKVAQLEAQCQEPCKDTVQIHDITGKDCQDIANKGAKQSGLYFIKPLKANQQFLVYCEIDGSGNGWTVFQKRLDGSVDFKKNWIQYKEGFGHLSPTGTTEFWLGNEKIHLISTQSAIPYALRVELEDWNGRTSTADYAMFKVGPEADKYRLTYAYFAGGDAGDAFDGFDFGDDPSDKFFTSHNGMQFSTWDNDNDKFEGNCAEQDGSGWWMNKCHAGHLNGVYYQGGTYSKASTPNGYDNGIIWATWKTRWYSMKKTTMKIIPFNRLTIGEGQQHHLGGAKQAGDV
Excerpt: Microfluidic Models of Vascular Embolism—
Microfluidic devices with a narrowed cross-sectional area (80 μm high×0.5 mm wide s 200 mm long) were fabricated using soft lithography as described above. Fibrin clots formed as described below that were infused into the main channel lodged and obstructed the flow in these smaller channels. A solution of t-PA or t-PA coated microaggregates was infused at a flow rate corresponding to a shear stress of 10 dyne/cm^2 in an unobstructed channel. Prior to infusion of the t-PA solutions, bovine plasminogen (Cell Sciences, MA) was added to a final concentration of 2.2 μM (S. L. Diamond, Annual review of biomedical engineering 1, 427 (1999)). During the fibrinolysis process, the fibrin clots size were monitored in real-time (images acquired every 30 sec) on an inverted Zeiss microscope.
Experimental Fibrin Emboli—
Fibrin clots were formed by adding CaCl2 (20 mM) and human α-thrombin (1 units/ml final concentrations, Enzyme Research Laboratories, IN) to human fibrinogen (5 mg/ml, Enzyme Research Laboratories, IN), as previously described (J. C. Murciano et al., Nature biotechnology 21, 891 (2003) and C. K. Lam, T. Yoo, B. Hiner, Z. Liu, J. Grutzendler, Nature 465, 478 (2010)). […] The diameter of the resulting fibrin beads was determined by optical microscopy to be ˜[…].

[2] = test system: ex vivo whole mouse lung with fibrin emboli; assay: Mouse pulmonary embolism model (ex vivo whole lung ventilation-perfusion); type: in vivo
Experimental: Mouse Pulmonary Embolism Model—
Male 6-8 week-old C57BL/6 mice (Jackson Laboratory, Bar Harbor, Me.) were weighed and anesthetized with Avertin (200 mg/kg IP). The trachea was incised via surgical tracheotomy, and cannulated with a blunted 22G stainless steel needle tip. The lungs were subsequently ventilated at a rate of 60 breaths/min, with a Peak Inspiratory Pressure (Pip) of 10 cm H2O and a Positive End Expiratory Pressure (Peep) of 3 cm H2O with compressed air using a mouse ventilator (VCM-R, Hugo Sachs Elektroniks, Germany). Ex vivo ventilation and perfusion of the mouse lung was performed using a IL1 ex vivo mouse lung ventilation-perfusion system (Harvard Apparatus, Natick, Mass.), (D. Huh et al., Science 328, 1662 (2010)). Following initiation of mechanical ventilation, the chest was opened via thoracotomy, and heparin (100 IU) was injected into the right ventricle. […] A suture was placed around the pulmonary artery and aorta. Cannulae made from polyethylene tubing (PE90 (0.86 mm ID, 1.7 mm OD)) were placed in the pulmonary artery (PA) and left atrium (LA), and lungs were perfused with RPMI-1640 with 4% Bovine Albumin (Probumin™ Reagent Grade, Billerica, Mass.) and 0.7 g NaCl/500 mL via a roller pump (ISM 834C, Ismatec SA, Switzerland) set at a constant flow rate of 0.5 ml/min in a recirculating system with a system volume of 6 mL. Perfusate and lung temperatures were maintained at 37° C. by housing the entire ex-vivo ventilation perfusion system inside a standard cell incubator without CO2 (Forma Scientific, Ohio). Humidity was maintained in the range of 90-95%. Pulmonary arterial and venous pressures and airway flow and pressures were recorded with dedicated Type 379 vascular pressure and DLP2.5 flow and MPX Type 399/2 airway pressure transducers and TAM-A amplifiers (Hugo Sachs Elektroniks, Germany). Vascular pressures were zeroed at the mid lung level prior to each experiment and recorded using Polyview16© software (Grass Technologies, West Warwick, R.I.) running on a desktop PC running Windows XP SP2 (Microsoft Corporation, Redmond, Wash.).
Prior to injection of experimental fibrin clots (prepared as above), the measured parameters were allowed to stabilize and remain stable for a period of more than 10 minutes. A solution of fibrin clots suspended in perfusion medium was infused at a flow rate of 0.1 ml/min and mixed with the regular perfusion line entering the pulmonary artery. The fibrin clot suspension was infused until the pulmonary artery pressure increased to ˜three-fold higher than the baseline. The system was then allowed to equilibrate and remain stable for at least 10 minutes. Next, tPA-coated platelet mimetics or free soluble tPA was added to the main perfusion line and circulated through the perfusion system. As in the microfluidic device experiments, when tPA was perfused, plasminogen was added to obtain a final concentration of 2.2 μM. Pulmonary artery and vein pressures were acquired continuously during the perfusion period. At the end of each experiment, lungs were perfused with 4% paraformaldehyde, and prepared for sectioning by incubating in 4% paraformaldehyde, then sucrose and OCT. All experimental animal protocols were approved by the Institutional Animal Care and Use Committee at Children's Hospital Boston and Harvard Medical School.

Substance: tissue plasminogen activator [free t-PA]
- reduction of emboli (clot) size [1]: < 5%
- dose required for similar effects on thrombolysis relative to tPA-coated platelet mimetics ([2]; 5000 ng/ml vs 50 ng/ml): 100 fold
- effect on pulmonary artery pressure ([2]; 10 times higher dose, 500 ng/ml (FIG. 5G)): did not reduce the pulmonary artery pressure
- effect on pulmonary artery pressure ([2]; tPA 50 ng/ml (FIG. 5G)): did not reduce the pulmonary artery pressure
- effect on pulmonary artery pressure ([2]; tPA 50 ng/ml (FIG. 5G), listed as soluble tPA): failed to produce any significant clinical response
- real-time pulmonary artery pressure: effect on pulmonary hypertension ([2]; tPA 50 ng/ml (FIG. 5H)): ineffective
